The series is described as follows: Relaxivity determinations (T1 and T2 relaxation times, Bruker Minispec mq60). It counts as physicochemical. The settings on record: in PBS, 0.25-1 mM Fe chelate, 60 MHz, 40° C.; gradient of 1/T1 vs Fe chelate concentration. Here is the method:
A stock solution having a concentration of 1 mM of the contrast enhancement agent was prepared in phosphate buffered saline (PBS) and the iron concentration was verified by elemental analysis. Separate 0.75 mM, 0.50 mM and 0.25 mM samples were prepared from the stock by dilution in PBS and the T1 and T2 relaxations times were recorded in triplicate for each using sample on a Bruker Minispec mq60 instrument (60 MHz, 40° C.). The relaxivities (r1 and r2) were obtained as the gradient of 1/Tx (x=1,2) plotted against Fe chelate concentration following linear least squares regression analysis. Data for contrast enhancement agents having structures III, IV, V, VI, VII, and VII, and a non-hydroxylated control contrast enhancement agent.

FeHBED(Me)2(OH)2 [III]: the r1 relaxivity is 0.9 mM⁻¹ s⁻¹.
Take FeHBED(OH')2 [VII]: the r1 relaxivity came to 1.0 mM⁻¹ s⁻¹.
To FeHBED(OH)2 [IV] belongs 0.8 mM⁻¹ s⁻¹.
Then FeHBED(OH) [VI], with 1.1 mM⁻¹ s⁻¹.

The record behind these values is patent US8378134B2, “Hydroxylated contrast enhancement agents” (General Electric Company, priority 2009, dated 2013).
